System: 922993-354-T-J3-PDC complex spheroid viability
Assay: Anticancer human tumor 922993-354-T-J3-PDC patient-derived endometrial carcinoma cell line growth inhibition [POLQ]
Conditions: for IC50: curve of first compound; for viability, T/C: stronger effect = lower value
Method in brief: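 Complex spheroid viability model combining PDC tumour cells with endothelial (HUVEC) and MSC stromal cells. Novobiocin, ART-558 or RP6685 were tested singly and in combination with standard and investigational anticancer drugs. Each was titrated in half-log steps from near clinical Cmax, or from 10 microM where Cmax was unknown.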

[1] = second compound 0.0316 µM, first compound 0.0316 µM
[2] = second compound 0.0316 µM, first compound 0.1 µM
[3] = second compound 0.0316 µM, first compound 0.316 µM
[4] = second compound 0.0316 µM, first compound 1 µM
[5] = second compound 0.0316 µM, first compound 3.16 µM
[6] = second compound 0.0316 µM, first compound 10 µM
[7] = second compound 0.1 µM, first compound 0.0316 µM
[8] = second compound 0.1 µM, first compound 0.1 µM
[9] = second compound 0.1 µM, first compound 0.316 µM
[10] = second compound 0.1 µM, first compound 1 µM
[11] = second compound 0.1 µM, first compound 3.16 µM
[12] = second compound 0.1 µM, first compound 10 µM
[13] = second compound 0.316 µM, first compound 0.0316 µM
[14] = second compound 0.316 µM, first compound 0.1 µM
[15] = second compound 0.316 µM, first compound 0.316 µM
[16] = second compound 0.316 µM, first compound 1 µM
[17] = second compound 0.316 µM, first compound 3.16 µM
[18] = second compound 0.316 µM, first compound 10 µM
[19] = second compound 1 µM, first compound 0.0316 µM
[20] = second compound 1 µM, first compound 0.1 µM
[21] = second compound 1 µM, first compound 0.316 µM
[22] = second compound 1 µM, first compound 1 µM
[23] = second compound 1 µM, first compound 3.16 µM
[24] = second compound 1 µM, first compound 10 µM
[25] = second compound 3.16 µM, first compound 0.0316 µM
[26] = second compound 3.16 µM, first compound 0.1 µM
[27] = second compound 3.16 µM, first compound 0.316 µM
[28] = second compound 3.16 µM, first compound 1 µM
[29] = second compound 3.16 µM, first compound 3.16 µM
[30] = second compound 3.16 µM, first compound 10 µM
[31] = second compound 10 µM, first compound 0.0316 µM
[32] = second compound 10 µM, first compound 0.1 µM
[33] = second compound 10 µM, first compound 0.316 µM
[34] = second compound 10 µM, first compound 1 µM
[35] = second compound 10 µM, first compound 3.16 µM
[36] = second compound 10 µM, first compound 10 µM
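Note: spheroids exposed to the agents for one week.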
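Throughout, for viability, T/C: 100% = DMSO vehicle control wells.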

CC(=O)O[C@H]1C(=O)[C@@]2(C)[C@H]([C@H](OC(=O)c3ccccc3)[C@]3(O)C[C@H](OC(=O)[C@H](O)[C@@H](NC(=O)c4ccccc4)c4ccccc4)C(C)=C1C3(C)C)[C@]1(OC(C)=O)CO[C@@H]1C[C@@H]2O + COC1C(OC(N)=O)C(O)C(Oc2ccc3c(O)c(NC(=O)c4ccc(O)c(CC=C(C)C)c4)c(=O)oc3c2C)OC1(C)C
IC50 (second compound 0.0316 µM): 2.64 µM | IC50 (second compound 0.1 µM): > 3 µM | IC50 (second compound 0.316 µM): 2.99 µM | IC50 (second compound 1 µM): > 3 µM | IC50 (second compound 3.16 µM): > 3 µM | IC50 (second compound 10 µM): 2 µM | viability, T/C (second compound 0.0316 µM, first compound 0.00949 µM): 97% | viability, T/C (second compound 0.0316 µM, first compound 0.03 µM): 96.3% | viability, T/C (second compound 0.0316 µM, first compound 0.0949 µM): 95.1% | viability, T/C (second compound 0.0316 µM, first compound 0.3 µM): 105% | viability, T/C (second compound 0.0316 µM, first compound 0.949 µM): 85.5% | viability, T/C (second compound 0.0316 µM, first compound 3 µM): 45.6% | viability, T/C (second compound 0.1 µM, first compound 0.00949 µM): 102% | viability, T/C (second compound 0.1 µM, first compound 0.03 µM): 101% | viability, T/C (second compound 0.1 µM, first compound 0.0949 µM): 107% | viability, T/C (second compound 0.1 µM, first compound 0.3 µM): 106% | viability, T/C (second compound 0.1 µM, first compound 0.949 µM): 83.6% | viability, T/C (second compound 0.1 µM, first compound 3 µM): 55.8% | viability, T/C (second compound 0.316 µM, first compound 0.00949 µM): 97.1% | viability, T/C (second compound 0.316 µM, first compound 0.03 µM): 118% | viability, T/C (second compound 0.316 µM, first compound 0.0949 µM): 104% | viability, T/C (second compound 0.316 µM, first compound 0.3 µM): 97.7% | viability, T/C (second compound 0.316 µM, first compound 0.949 µM): 80.5% | viability, T/C (second compound 0.316 µM, first compound 3 µM): 49.8% | viability, T/C (second compound 1 µM, first compound 0.00949 µM): 96.9% | viability, T/C (second compound 1 µM, first compound 0.03 µM): 99.4% | viability, T/C (second compound 1 µM, first compound 0.0949 µM): 104% | viability, T/C (second compound 1 µM, first compound 0.3 µM): 104% | viability, T/C (second compound 1 µM, first compound 0.949 µM): 79.9% | viability, T/C (second compound 1 µM, first compound 3 µM): 53.2% | viability, T/C (second compound 3.16 µM, first compound 0.00949 µM): 99.2% | viability, T/C (second compound 3.16 µM, first compound 0.03 µM): 92.8% | viability, T/C (second compound 3.16 µM, first compound 0.0949 µM): 101% | viability, T/C (second compound 3.16 µM, first compound 0.3 µM): 99.3% | viability, T/C (second compound 3.16 µM, first compound 0.949 µM): 76.9% | viability, T/C (second compound 3.16 µM, first compound 3 µM): 54.9% | viability, T/C (second compound 10 µM, first compound 0.00949 µM): 84.7% | viability, T/C (second compound 10 µM, first compound 0.03 µM): 82.2% | viability, T/C (second compound 10 µM, first compound 0.0949 µM): 94.9% | viability, T/C (second compound 10 µM, first compound 0.3 µM): 68.9% | viability, T/C (second compound 10 µM, first compound 0.949 µM): 64% | viability, T/C (second compound 10 µM, first compound 3 µM): 43.3%

CC(C)n1c(=O)n(C)c2cnc3cc(F)c(-c4ccc(OCCCN5CCCCC5)nc4)cc3c21 + COC1C(OC(N)=O)C(O)C(Oc2ccc3c(O)c(NC(=O)c4ccc(O)c(CC=C(C)C)c4)c(=O)oc3c2C)OC1(C)C
IC50 (second compound 0.0316 µM): > 10 µM | IC50 (second compound 0.1 µM): > 10 µM | IC50 (second compound 0.316 µM): > 10 µM | IC50 (second compound 1 µM): > 10 µM | IC50 (second compound 3.16 µM): > 10 µM | IC50 (second compound 10 µM): > 10 µM | viability, T/C [1]: 111% | viability, T/C [2]: 90.8% | viability, T/C [3]: 104% | viability, T/C [4]: 94.8% | viability, T/C [5]: 84.2% | viability, T/C [6]: 59% | viability, T/C [7]: 103% | viability, T/C [8]: 97.2% | viability, T/C [9]: 104% | viability, T/C [10]: 91.9% | viability, T/C [11]: 83.3% | viability, T/C [12]: 63.7% | viability, T/C [13]: 99.2% | viability, T/C [14]: 104% | viability, T/C [15]: 94.1% | viability, T/C [16]: 93.5% | viability, T/C [17]: 84.3% | viability, T/C [18]: 66.5% | viability, T/C [19]: 88.9% | viability, T/C [20]: 98.3% | viability, T/C [21]: 100% | viability, T/C [22]: 91.9% | viability, T/C [23]: 86.9% | viability, T/C [24]: 70.3% | viability, T/C [25]: 95.9% | viability, T/C [26]: 104% | viability, T/C [27]: 85.5% | viability, T/C [28]: 86.2% | viability, T/C [29]: 85.1% | viability, T/C [30]: 56.7% | viability, T/C [31]: 81% | viability, T/C [32]: 77.1% | viability, T/C [33]: 89.6% | viability, T/C [34]: 74.1% | viability, T/C [35]: 70.2% | viability, T/C [36]: 63%

COc1ccc([C@@H](O)c2cc(-c3ncnc4cc(N5CCOCC5)ccc34)c(F)cc2Cl)nn1 + Cc1cccc(N(C)C(=O)C2C(O)CCN2c2nc(C)cc(C(F)(F)F)c2C#N)c1
IC50 (second compound 0.0316 µM): > 10 µM | IC50 (second compound 0.1 µM): > 10 µM | IC50 (second compound 0.316 µM): > 10 µM | IC50 (second compound 1 µM): > 10 µM | IC50 (second compound 3.16 µM): > 10 µM | IC50 (second compound 10 µM): > 10 µM | viability, T/C [1]: 94% | viability, T/C [2]: 85.9% | viability, T/C [3]: 97.3% | viability, T/C [4]: 98.3% | viability, T/C [5]: 85.4% | viability, T/C [6]: 58.2% | viability, T/C [7]: 97.2% | viability, T/C [8]: 99.5% | viability, T/C [9]: 104% | viability, T/C [10]: 94.6% | viability, T/C [11]: 81.1% | viability, T/C [12]: 63.9% | viability, T/C [13]: 99.9% | viability, T/C [14]: 104% | viability, T/C [15]: 98.5% | viability, T/C [16]: 84.3% | viability, T/C [17]: 82.9% | viability, T/C [18]: 62.6% | viability, T/C [19]: 101% | viability, T/C [20]: 93.5% | viability, T/C [21]: 103% | viability, T/C [22]: 103% | viability, T/C [23]: 79% | viability, T/C [24]: 62.7% | viability, T/C [25]: 103% | viability, T/C [26]: 102% | viability, T/C [27]: 102% | viability, T/C [28]: 86.9% | viability, T/C [29]: 80.2% | viability, T/C [30]: 60.5% | viability, T/C [31]: 93.6% | viability, T/C [32]: 95% | viability, T/C [33]: 91.4% | viability, T/C [34]: 83.7% | viability, T/C [35]: 78% | viability, T/C [36]: 57.9%

Reference: PubChem BioAssay AID1963830 (Molecular Pharmacology Branch, DTP, NCI, 2024)
